Test results taken from patent publication US20210128680A1, “METHOD FOR TREATING CARDIOPULMONARY DISORDER” (Chang Gung University, priority 2019, published 2021).
“Also recorded” adds a separate entry of the source.

Columns and labels:
human PASMCs = assay: Western blot of protein expression in human PASMCs under in vitro hypoxia; format: cell-based
Experimental: Human PASMCs were obtained from commercial sources (Lonza). Cells were grown in SMC growth medium (5% FBS, 1 μg/ml hydrocortisone, 10 ng/ml human epidermal growth factor, 3 ng/ml basic fibroblast growth factor, 10 μg/ml heparin, 10 μg/ml gentamycin, and 0.25 μg/ml amphotericin) (Lonza) and were used between passages 4 and 7. Cells were starved in SMC medium with 0.1% FBS for 24 h before the experiment. Human PASMCs were cultured in the TGF-β 2.5 ng/ml condition for 6 hours to determine the effect of lumikine on the protein expressions.
Human PASMCs were cultured in the hypoxic condition for 24 hours to determine the effect of lumikine on the protein expressions. Hypoxia was created in an incubator: 5% CO2+94% N2+[…], 37° C. Lumikine were dissolved in culture medium at a final concentration of 100 nM.
Tissue samples or cell samples were homogenized in lysis buffer containing 50 mM Tris-HCl, pH 7.4, 50 mM NaCl, 5 mM EDTA, 1% Triton X-100, 0.05% SDS, 50 mM NaF, 10 mM β-glycerophosphate, sodium pyrophosphate, 100 μM Na3VO4, and protease inhibitor cocktail (Calbiochem, Millipore). Immunoblotting was performed using anti-lumican (Abcam; 1:2000), ant-HIF-1α(Abeam; 1:1000), anti-p-AKT, or AKT (Cell Signaling; 1:1000), and anti-p-SMAD2 (Cell Signaling; 1:1000), as primary antibodies. Secondary antibodies specific for peroxidase-conjugated anti-mouse IgG (Jackson; 1:10000) or anti-rabbit IgG (Jackson; 1:10000) were used as needed. Blots were visualized using an enhanced chemi-luminescence detection system (Millipore). Samples were normalized to GAPDH (Santa Cruz; 1:10000) and quantified by densitometry.
In this example, in vitro hypoxic (1% oxygen) model was used to evaluate the effect of the present synthetic peptide—lumikine (SEQ ID NO: 2) on pulmonary arterial smooth muscle cell (PASMCs).

MCT PASMCs [1] = assay: BrdU incorporation cell proliferation assay, MCT PASMCs; format: cell-based, rat; conditions: FIG. 5 panel B
Experimental: (§1) PASMCs were isolated from lungs of MCT-treated or control rats using the explant method, as described previously (Lai Y J et al. Am J Respir Crit Care Med. 2008, 178(2):188-96). To culture PASMCs, the PA was dissected from lung and cardiac tissues. The pulmonary arterial tissue was cut into small pieces and suspended in Dulbecco's modified Eagle's medium (DMEM) (Gibco) containing 100 U/mL penicillin, 100 µg/mL streptomycin (Gibco), and 20% fetal bovine serum (FBS) (Gibco). We observed a decrease in desmin, a smooth muscle cell gene marker, at passage 3. Therefore, rat PASMCs were used before passage 3 for all of the in vitro experiments. Characterization of PASMCs was performed by immunocytochemical staining with anti-α-SM-actin (Sigma-Aldrich) and anti-desmin (NeoMakers) antibodies.
(§2) The proliferative activity of PASMCs and the effects of the lumikine were determined by an ELISA-based 5-bromo-2-deoxyuridine (BrdU) incorporation assay kit (Roche Diagnostics Co.) according to the manufacturer's instructions.
(§3) Proliferation of PASMC is critical to the development of PAH. To characterize whether lumikine affected the proliferation of PASMCs in PAH and non-PAH subjects, the PASMCs were isolated from rats with or without MCT induced PAH.

control (CON) PASMCs = assay: BrdU incorporation cell proliferation assay, control PASMCs; format: cell-based, rat; conditions: compared with vehicle treatment, FIG. 5
Experimental: as §1, §2, §3

MCT PASMCs [2] = assay: pAKT expression in MCT PASMCs; format: cell-based, rat
Experimental: as §1
Tissue samples or cell samples were homogenized in lysis buffer containing 50 mM Tris-HCl, pH 7.4, 50 mM NaCl, 5 mM EDTA, 1% Triton X-100, 0.05% SDS, 50 mM NaF, 10 mM β-glycerophosphate, sodium pyrophosphate, 100 μM Na3VO4, and protease inhibitor cocktail (Calbiochem, Millipore). […] Blots were visualized using an enhanced chemi-luminescence detection system (Millipore). Samples were normalized to GAPDH (Santa Cruz; 1:10000) and quantified by densitometry.

hypoxia-induced PAH mice = assay: Hypoxia-induced PAH mice: RV hypertrophy and pulmonary artery medial wall thickness; format: in vivo; conditions: for right ventricular (RV) weight (RV/LV+S ratio): hypoxia (10% O2) mice, 3 ng/kg/day, 28 days, FIG. 6 panel A
Experimental: Adult male Sprague-Dawley rats (200-250 g in body weight) were randomized assigned into two groups for treatment of 28 days after s.c. injection of saline or 60 mg/kg monocrotaline (MCT) (Sigma-Aldrich) to induce pulmonary hypertension (PH). Rats were examined after 3 weeks of treatment (on day 28). Hypoxic pulmonary vascular remodeling was induced by exposure of mice (8-week-old C57BL/6) to chronic hypoxia (10% 02) in a ventilated chamber, as described previously (Li H H et al. Am J Physiol Lung Cell Mol Physiol. 2017: ajplung 00245 2017). The chronic effects of lumikne were assessed in mice exposed to hypoxia for 28 days. Briefly, animals were kept in hypoxic conditions to develop pulmonary hypertension. […] All animal experimental protocols were reviewed and approved by the Chang Gung University IACUC. This study was carried out in strict accordance with the recommendations in the Guide for the Care and Use of Laboratory Animals of the National Institutes of Health. Housing and maintenance was provided by Chang Gung University, and all animals were fed a standard chow diet with free access to water. After sacrifice, the RV wall was separated from the LV wall and ventricular septum. Wet weight of the RV, free LV wall, and ventricular septum was determined and weighted. RV hypertrophy was expressed as the ratio of weight of the RV wall and that of the free LV wall and ventricular septum (LV+S). Fixation was performed by immersion of the lungs in a 10% paraformaldehyde solution. For paraffin embedding, the entire lungs were dissected in tissue blocks from all lobes. Sectioning at 5 μm was performed from all paraffin-embedded blocks. To assess the type of remodeling of muscular pulmonary arteries, the percentage of MWT was utilized to characterize vascular medial hypertrophy by α-SM-actin staining. Under 400× microscopic examination, MWT was defined as the distance between the internal and external elastic laminae using “ImageJ” software downloaded from the open source available from the internet. […]

“lumikine: synthetic peptide X1EX2LRVANEVTLN (SEQ ID NO: 1) in which X1 is tyrosine (Y) and X2 is alanine (A) (YEALRVANEVTLN)” was tested, and the level of lumican (human PASMCs; lumikine 100 nM, hypoxic condition 24 hours, FIG. 4 panel B) was “increase”, the “level of HIF-1α” value (human PASMCs; lumikine 100 nM, hypoxic condition 24 hours, FIG. 4 panel C) was “reduction” and the “level of pSmad3” value (human PASMCs; lumikine 100 nM, hypoxic condition 24 hours, FIG. 4 panel D) was “reduction”. The “level of pAKT” value (human PASMCs; lumikine 100 nM, hypoxic condition 24 hours, FIG. 4 panel E) was “reduction”, the Smad4 (human PASMCs; lumikine treatment, hypoxic condition, FIG. 4F) was “remained unaffected” and the “serum-induced PASMC proliferation” value (MCT PASMCs [1]; 10% FBS) was “dose-dependently decrease; also recorded: inhibited significantly”. The “proliferation of control PASMCs” value (control (CON) PASMCs) was “no significantly effects; also recorded: did not affect”, the pAKT expression (MCT PASMCs [2]) was “reduced” and the “right ventricular (RV) weight (RV/LV+S ratio)” value (hypoxia-induced PAH mice) was “significantly reduced”. The “right ventricular (RV) weight (RV/LV+S ratio)” value (hypoxia-induced PAH mice; listed as Lumikine) was “reduction” and the “medial wall thickness (MWT) of the pulmonary artery” value (hypoxia-induced PAH mice; hypoxia mice, 3 ng/kg/day for 21 days (days 8-28), PAs 25-100 μm, FIG. 6 panel B) was “significantly reduction”.

In the case of O=S(=O)(NCCNC/C=C/c1ccc(Br)cc1)c1cccc2cnccc12 [H89, reference compound], the “effect on lumikine inhibition of MCT PASMC proliferation” value (MCT PASMCs [1]; H89 with lumikine (100 nM)) is reported as “reversed”.
